Measurements published in patent publication US12122780B2, “Pyrimidinyl group-containing tricyclic compound serving as c-Met inhibitor” (JIANGSU AOSAIKANG PHARMACEUTICAL CO., LTD., priority 2019, dated 2024).
Structures can show the parent of a compound that is named as a salt.

How the values were obtained:
c-Met enzyme = c-Met enzyme (Homo sapiens (Human), UniProt P08581); assay: c-Met enzyme activity inhibition (Promega c-Met Kinase Enzyme System, ADP-Glo); type: biochemical; conditions: 10 μM ATP, 60 min, 30° C.
c-Met enzyme, sequence (P08581 956-1390): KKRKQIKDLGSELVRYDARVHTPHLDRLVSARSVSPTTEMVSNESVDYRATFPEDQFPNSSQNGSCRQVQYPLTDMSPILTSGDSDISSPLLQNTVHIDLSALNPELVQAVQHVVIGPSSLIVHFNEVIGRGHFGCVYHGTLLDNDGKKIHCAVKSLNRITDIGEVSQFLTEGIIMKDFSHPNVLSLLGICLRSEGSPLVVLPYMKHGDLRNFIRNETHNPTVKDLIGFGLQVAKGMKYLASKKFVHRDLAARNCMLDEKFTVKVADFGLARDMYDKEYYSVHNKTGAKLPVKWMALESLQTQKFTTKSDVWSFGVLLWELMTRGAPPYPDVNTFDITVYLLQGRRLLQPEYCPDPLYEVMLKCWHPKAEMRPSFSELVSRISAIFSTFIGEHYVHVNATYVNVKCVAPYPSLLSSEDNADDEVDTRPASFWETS
Protocol: To detect the inhibitory effect of the compounds on c-Met enzyme activity.
The c-Met Kinase Enzyme System was purchased from Promega. Envision multi-label analyzer (PerkinElmer).
The kinase buffer in the kit was used to dilute the enzyme, substrate, ATP and inhibitor.
The compound to be tested was diluted 5-fold to the eighth concentration with a discharge gun, i.e., from 50 μM to […], with a final DMSO concentration of 5%, and double duplicate wells experiment was set. 1 μL of each concentration gradient of the inhibitor, 2 μL of c-Met enzyme (4 ng), 2 μL of a mixture of the substrate and ATP (10 μM ATP, 0.2 μg/μL poly E4Y1) were added to the microplate, and the final concentration gradient of the compound of 10 μM was diluted to 0.13 nM. The reaction system was placed at 30° C. and the reaction was carried out for 60 minutes. When the reaction was completed, 5 μL of ADP-Glo reagent was added to each well and the reaction was carried out at 30° C. for another 40 minutes, when the reaction was completed, 10 μL of kinase detection reagent was added to each well, then the reaction was carried out at 30° C. for still another 30 minutes, chemiluminescence was read by the PerkinElmer Envision multi-label analyzer with an integration time of 0.5 seconds.
Using the equation (Sample-Min)/(Max-Min)*100% to convert the original data to the inhibition rate, the IC50 value can be obtained by curve fitting with four parameters (obtained by log(inhibitor) vs. response in GraphPad Prism—Variable slope mode).

EBC-1 cells = assay: EBC-1 cell proliferation experiment (CellTiter-Glo); type: cell-based, human; conditions: Homo sapiens, EBC-1, 72 h, 3 days
Protocol: MEM medium, fetal bovine serum, penicillin/streptomycin antibiotics were purchased from Wisent. EBC-1 cell line was purchased from Nanjing COBIO Bioscience Co., LTD. Envision multi-label analyzer (PerkinElmer).
EBC-1 cells were seeded in a white 96-well plate, […] cell suspension per well, which contained 3000 EBC-1 cells. The cell plate was placed in a carbon dioxide incubator for overnight culture.
The compound to be tested was diluted 5-fold to the eighth concentration with a discharge gun, i.e., from 2 mM to […], and double duplicate wells experiment was set. 78 μL of the medium was added to the middle plate, then 2 μL per well of gradient diluted compound was transferred to the corresponding position on the middle plate, then mixed well and 20 μL per well was transferred to the cell plate. The cell plate was cultured in a carbon dioxide incubator for 3 days. Another cell plate was prepared and the signal values were read on the day of dosing as […] to be used in the data analysis. 25 μL of Promega CellTiter-Glo was added to each well of this cell plate, and incubated at room temperature for 10 minutes to stabilize the luminescence signal. Readings were taken using a PerkinElmer Envision multi-label analyzer.
25 μL of Promega CellTiter-Glo reagent was added to each well of this cell plate, and incubated at room temperature for 10 minutes to stabilize the luminescence signal. Readings were taken using a PerkinElmer Envision multi-label analyzer.
Using the equation (Sample-Min)/(Max-Min)*100% to convert the original data to the inhibition rate, the IC50 value can be obtained by curve fitting with four parameters (obtained by “log(inhibitor) vs. response in GraphPad Prism—Variable slope mode).

[1] = tested on: human lung cancer EBC-1 xenograft tumor; assay: In vivo drug efficacy, human lung cancer EBC-1 xenograft tumor in nude mice; parameters: species or system BALB/c nude mice; conditions: for Tumor volume: n = 6
Protocol: BALB/c nude mice, female, 6-8 weeks old, weighing about 18-20 grams, animals were raised in SPF-class animal rooms in IVC (independent air supply system, constant temperature and humidity) cages (3 per cage). All cages, bedding and water were disinfected before use. All animals had free access to standard certified commercial laboratory diets. A total of 36 mice purchased from Shanghai Lingchang Biotechnology Co., Ltd. were used for research. Each animal was inoculated with 0.1 mL (5×10^6 cells) of EBC-1 cells on the right back, when the average tumor volume reached 243 mm^3, the animals were randomly grouped and the administration was started. The test compound was orally administered daily, the dose of hydrochloride of compound 24 was 10 mg/kg, the two doses of hydrochloride of compound 25 were 10 mg/kg and 20 mg/kg, respectively, and the dose of hydrochloride of compound 29 was 10 mg/kg. The tumor diameter was measured with vernier calipers twice a week. The calculation formula of tumor volume was: V=0.5a×b^2, a and b represented the long diameter and short diameter of the tumor, respectively. The anti-tumor efficacy of the compound was evaluated by TGI (%) or the relative tumor proliferation rate T/C (%). Relative tumor proliferation rate T/C (%)=TRTV/CRTV×100% (TRTV: average RTV in the treatment group; CRTV: average RTV in the negative control group). The relative tumor volume (RTV) was calculated according to the results of tumor measurement, the calculation formula was RTV=Vt/V0, wherein V0 was the tumor volume measured at the time of the grouping administration (i.e. D0), Vt was the tumor volume at a certain measurement, and TRTV and CRTV were taken on the same day. TGI (%) reflected the tumor growth inhibition rate. TGI (%)=[(1−(average tumor volume of a certain treatment group after administration-average tumor volume of the treatment group at the beginning of administration))/(average tumor volume of the solvent control group after the administration-average tumor volume of the solvent control group at the beginning of the administration)]×100%. Statistical analysis was performed based on RTV data at the end of the experiment, and SPSS software was used for analysis.

Hs746T cells = assay: Hs746T cell proliferation experiment (CellTiter-Glo); type: cell-based; conditions: Homo sapiens, 96 h, 4 days
Protocol: DMEM medium was purchased from Gibco, and fetal bovine serum was purchased from Hyclone. Hs746T cell line was purchased from ATCC. Envision multi-label analyzer (PerkinElmer).
Hs746T cells were seeded in a 384-well plate, 50 μL of cell suspension per well, which contained 1500 Hs746T cells. The cell plate was placed in a carbon dioxide incubator for overnight culture.
The compounds to be tested were 3-fold diluted into 9 concentrations with Tecan, double-duplicate well experiment was set, and the final compound concentrations added to the 384-well cell plate were 1000 nM to 0.15 nM. The cell plate was cultured in a carbon dioxide incubator for 4 days.
After 4 days, 25 μL of Promega CellTiter-Glo reagent was added to each well of this cell plate, and incubated at room temperature for 10 minutes to stabilize the luminescence signal. Readings were taken using a PerkinElmer Envision multi-label analyzer.
The action curves of the compounds were automatically fitted using Xlfit software and the values of IC50 were calculated, High control was the values of DMSO-treated wells and Low control was the values of cell-free medium wells.

SMILES | IC50 (c-Met enzyme) [nM] | IC50 (EBC-1 cells) [nM] | IC50 (Hs746T cells) [nM] | other results
CCN1CCC(COc2cnc(-c3ccc(F)c(Cn4c(=O)ccn5c6cc(C#N)ccc6nc45)c3)nc2)CC1 [Hydrochloride of compound 29] | 6.31 | 10.3 |  | Tumor volume ([1]; 10 mg/kg oral daily (stopped after 15 days), day 18, mean ± standard error): 218 ± 50 mm^3; Tumor volume ([1]; 10 mg/kg oral daily (stopped after 15 days), day 21, mean ± standard error): 243 ± 56 mm^3; Tumor volume ([1]; 10 mg/kg oral daily (stopped after 15 days), day 25, mean ± standard error): 337 ± 83 mm^3; Tumor volume ([1]; 10 mg/kg oral daily (stopped after 15 days), day 25, mean ± standard error, listed as hydrochloride of compound 29): 337 mm^3; Tumor volume ([1]; 10 mg/kg oral daily (stopped after 15 days), day 27, mean ± standard error): 412 ± 100 mm^3; TGI (tumor growth inhibition rate) ([1]; 10 mg/kg oral daily, 25th day): 94.8%; TRTV/CRTV (relative tumor proliferation rate T/C) ([1]; 10 mg/kg oral daily, 25th day): 16.2%; Tumor volume ([1]; 10 mg/kg oral daily, day 0, mean ± standard error): 243 ± 17 mm^3; Tumor volume ([1]; 10 mg/kg oral daily, day 4, mean ± standard error): 299 ± 13 mm^3; Tumor volume ([1]; 10 mg/kg oral daily, day 7, mean ± standard error): 318 ± 21 mm^3; Tumor volume ([1]; 10 mg/kg oral daily, day 11, mean ± standard error): 294 ± 27 mm^3; Tumor volume ([1]; 10 mg/kg oral daily, day 14, mean ± standard error): 205 ± 37 mm^3
N#Cc1ccc2nc3n(Cc4cccc(-c5ncc(OCC6CCN(CCO)CC6)cn5)c4)c(=O)ccn3c2c1 [Hydrochloride of compound 30] | 7.48 | 7.09 | 2 | 
CN1CCC(O)(COc2cnc(-c3cccc(Cn4c(=O)ccn5c6cc(C#N)ccc6nc45)c3)nc2)CC1 [Hydrochloride of compound 34] | 2.82 | 4.91 | 2.6 | 
COC1(COc2cnc(-c3cccc(Cn4c(=O)ccn5c6cc(C#N)ccc6nc45)c3)nc2)CCN(C)CC1 [Hydrochloride of compound 36] | 7.38 | 6.13 | 2.7 | 
CC(C)N1CCC(O)(COc2cnc(-c3cccc(Cn4c(=O)ccn5c6cc(C#N)ccc6nc45)c3)nc2)CC1 [Hydrochloride of compound 37] | 4.26 | 4.91 | 2.5 | 
COC1(COc2cnc(-c3cccc(Cn4c(=O)ccn5c6cc(C#N)ccc6nc45)c3)nc2)CCN(C(C)C)CC1 [Hydrochloride of compound 38] | 7.65 | 8.51 | 3.2 | 
COC1(COc2cnc(-c3cccc(Cn4c(=O)ccn5c6cc(C#N)ccc6nc45)c3)nc2)CCN(CCO)CC1 [Hydrochloride of compound 41] | 6.63 | 5.08 | 2.3 | 
